Here are results for 20 compounds from ChEMBL document CHEMBL1132053, “Synthesis and activity of 2-(sulfonamido)methyl-carbapenems: discovery of a novel, anti-MRSA 1,8-naphthosultam pharmacophore” (Bioorg Med Chem Lett, 1999).

Assay [1] deals with Staphylococcus sp. Description: (§1) Antibacterial activity against MRCNS. It counts as functional.
The test system of assay [2] is Staphylococcus aureus. Briefly: Antibacterial activity against MRSA. The assay is classed as functional.
For assay [3], the system named is Enterococcus faecium. Briefly: Antibacterial activity against MDREFm. It counts as functional.
The subject of assay [4] is Enterococcus faecalis. Description: Antibacterial activity against VREFs. The assay is classed as functional.
Assay [5] concerns Staphylococcus aureus. Description: Antibacterial activity against MRSA strain COL. It counts as functional.
In assay [6] the target is T1, MecA (Staphylococcus aureus, UniProt Q7DHH4).
T1 sequence (Q7DHH4 whole entry): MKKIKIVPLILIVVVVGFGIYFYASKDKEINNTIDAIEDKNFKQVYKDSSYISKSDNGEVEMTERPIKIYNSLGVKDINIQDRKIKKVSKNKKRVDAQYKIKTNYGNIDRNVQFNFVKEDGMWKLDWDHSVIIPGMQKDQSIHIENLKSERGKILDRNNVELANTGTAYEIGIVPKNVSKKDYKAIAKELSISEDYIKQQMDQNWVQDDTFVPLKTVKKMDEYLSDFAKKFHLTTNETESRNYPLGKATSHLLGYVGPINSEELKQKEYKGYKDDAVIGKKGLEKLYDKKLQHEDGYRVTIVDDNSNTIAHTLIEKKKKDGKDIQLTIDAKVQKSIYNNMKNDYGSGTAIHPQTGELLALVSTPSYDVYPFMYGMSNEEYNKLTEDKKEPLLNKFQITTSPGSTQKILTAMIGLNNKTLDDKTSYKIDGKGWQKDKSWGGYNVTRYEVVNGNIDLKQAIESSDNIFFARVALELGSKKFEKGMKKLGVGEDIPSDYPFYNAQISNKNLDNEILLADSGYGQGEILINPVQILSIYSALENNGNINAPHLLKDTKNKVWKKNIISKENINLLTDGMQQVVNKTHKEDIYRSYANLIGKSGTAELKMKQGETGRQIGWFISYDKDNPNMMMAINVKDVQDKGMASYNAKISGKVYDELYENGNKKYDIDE
Description: Compound was tested for its binding affinity towards Penicillin-binding protein 2a (PBP2a) using […]-benzylpenicillin.

Assay [7] has as its system Streptococcus pneumoniae. Description: Antibacterial activity against PRSP. It counts as functional.
Assay [8] deals with Staphylococcus aureus. Description: Antibacterial activity against for MRSA strain COL. The assay is classed as functional.
Assay [9] deals with Staphylococcus. The assay is described as §1. The assay is classed as functional.

Each structure is given as a SMILES string. Values after ≈ are worked out from the molar mass of the structure shown.

For orientation: MIC means the smallest concentration in the dilution series that meets the test's criterion for growth inhibition. Low values mean greater potency, high ones weaker potency. A word on the IC50: it is the point on the concentration scale where inhibition reaches its midpoint. Higher therefore signals lower potency.

As for `C[C@@H](O)[C@H]1C(=O)N2C(C(=O)[O-])=C(CN3Cc4c(ccc5ccccc45)S3(=O)=O)[C@H](C)[C@H]12.[Na+]`, the minimal inhibitory concentration (MIC) is 10.6 µg/mL in assay [1]; 3.4 µg/mL in [2]; 50.8 µg/mL in assay [3]; 8 µg/mL in [4]; 8 µg/mL in [5]; 0.17 µg/mL in assay [7]. In assay [6], this compound gave an IC50 of 38.1 µM.
Turning to `C[C@@H](O)[C@H]1C(=O)N2C(C(=O)[O-])=C(CN3Cc4ccccc4S3(=O)=O)[C@H](C)[C@H]12.[Na+]`, the MIC in assay [5] stood at 64 µg/mL.
For `C[C@@H](O)[C@H]1C(=O)N2C(C(=O)[O-])=C(CN3Cc4cccc5cccc(c45)S3(=O)=O)[C@H](C)[C@H]12.[Na+]`, the MIC in assay [1] came out at 16 µg/mL; in assay [2], 8.5 µg/mL; in assay [3], 40.3 µg/mL; in assay [4], 8 µg/mL; in [5], 16 µg/mL; in [7], 0.12 µg/mL. The 50% inhibitory concentration (IC50) in assay [6] was 46.9 µM.
As to `C[C@@H](O)[C@H]1C(=O)N2C(C(=O)[O-])=C(CN(c3cccc4ccccc34)S(C)(=O)=O)[C@H](C)[C@H]12.[Na+]`, the minimal inhibitory concentration (MIC) in assay [8] is above 64 µg/mL.
In assay [5], `C[C@@H](O)[C@H]1C(=O)N2C(C(=O)[O-])=C(CN(c3ccccc3)S(=O)(=O)c3ccccc3)[C@H](C)[C@H]12.[Na+]` had an MIC of 64 µg/mL.
On the same count and under the same terms, then `C[C@@H](O)[C@H]1C(=O)N2C(C(=O)[O-])=C(CN3C(=O)c4ccccc4S3(=O)=O)[C@H](C)[C@H]12.[Na+]`, with 16 µg/mL.
With `C[C@@H](O)[C@H]1C(=O)N2C(C(=O)[O-])=C(CN3C(=O)c4cccc5cccc(c45)S3(=O)=O)[C@H](C)[C@H]12.[Na+]`, the MIC in assay [1] was 8 µg/mL; in assay [2], 4 µg/mL; in assay [3], 32 µg/mL; in assay [4], 8 µg/mL; in assay [5], 8 µg/mL; in assay [7] it was 0.25 µg/mL. This compound gave a half-inhibitory concentration (IC50) in [6] of 5.02 µM.
With `C[C@@H](O)[C@H]1C(=O)N2C(C(=O)[O-])=C(CN3C(=O)c4cccc5cccc3c45)[C@H](C)[C@H]12.[Na+]`, the minimal inhibitory concentration (MIC) in assay [9] was 21.1 µg/mL; in assay [2] it was 12 µg/mL; in [3], 64 µg/mL; in assay [4] it was 64 µg/mL; in assay [5], 32 µg/mL; in assay [7], 4 µg/mL.
Consider `C[C@@H](O)[C@H]1C(=O)N2C(C(=O)[O-])=C(CN3c4ccccc4CS3(=O)=O)[C@H](C)[C@H]12.[Na+]`, for which the MIC in assay [5] is 16 µg/mL.
Turning to `C[C@@H](O)[C@H]1C(=O)N2C(C(=O)[O-])=C(CN3c4cccc5cccc(c45)N(C)S3(=O)=O)[C@H](C)[C@H]12.[Na+]`, the MIC in [1] amounted to 7 µg/mL; in assay [2] it was 1.5 µg/mL; in [3], 64 µg/mL; in assay [4], 64 µg/mL; in assay [5], 4 µg/mL; in assay [7], 1 µg/mL. The compound further showed a half-inhibitory concentration (IC50) in assay [6] of 14.8 µM.
`C[C@@H](O)[C@H]1C(=O)N2C(C(=O)[O-])=C(CN(c3cccc4c3-c3ccccc3C4=O)S(C)(=O)=O)[C@H](C)[C@H]12.[Na+]` returned an MIC in [5] above 64 µg/mL.
For the compound `C[C@@H](O)[C@H]1C(=O)N2C(C(=O)[O-])=C(CN3C(=O)c4cccc5cccc(c45)C3=O)[C@H](C)[C@H]12.[Na+]`, the MIC in assay [1] amounted to 24.3 µg/mL; in assay [2], 12 µg/mL; in [3], 64 µg/mL; in [4], 24.3 µg/mL; in assay [5], 32 µg/mL; in assay [7] it was 1.4 µg/mL. The same compound showed an IC50 in [6] of 3.16 µM.
Take `C[C@@H](O)[C@H]1C(=O)N2C(C(=O)[O-])=C(CN3c4cccc5cccc(c45)S3(=O)=O)[C@H](C)[C@H]12.[Na+]`: the minimum inhibitory concentration (MIC) in [5] amounted to 2 µg/mL.
Consider `C[C@@H](O)[C@H]1C(=O)N2C(C(=O)[O-])=C(CN3c4ccccc4-c4ccccc4S3(=O)=O)[C@H](C)[C@H]12.[Na+]`, for which, in assay [5], inhibition of growth (MIC) required 8 µg/mL.
Compound `C[C@@H](O)[C@H]1C(=O)N2C(C(=O)[O-])=C(CN(c3ccc4ccccc4c3)S(=O)(=O)c3ccccc3)[C@H](C)[C@H]12.[Na+]` came in with an MIC in assay [5] of 64 µg/mL.
As to `C[C@@H](O)[C@H]1C(=O)N2C(C(=O)[O-])=C(CN3C(=O)c4c(ccc5ccccc45)S3(=O)=O)[C@H](C)[C@H]12.[Na+]`, the minimal inhibitory concentration (MIC) was determined as 5.3 µg/mL in assay [1]; 1.3 µg/mL in [2]; 20.2 µg/mL in assay [3]; 8 µg/mL in assay [4]; 4 µg/mL in assay [5]; 0.25 µg/mL in assay [7]. In assay [6], this compound showed a half-inhibitory concentration (IC50) of 3.34 µM.
For the compound `C[C@@H](O)[C@H]1C(=O)N2C(C(=O)[O-])=C(CN(c3ccccc3)S(=O)(=O)c3ccc4ccccc4c3)[C@H](C)[C@H]12.[Na+]`, it took 64 µg/mL to inhibit growth in assay [5] (MIC).
Same read-out and setting: then `C[C@@H](O)[C@H]1C(=O)N2C(C(=O)[O-])=C(CN(c3ccc4ccccc4c3)S(C)(=O)=O)[C@H](C)[C@H]12.[Na+]`, with above 64 µg/mL.
For the compound `C[C@@H](O)[C@H]1C(=O)N2C(C(=O)O)=C(SCCNC=N)C[C@H]12` [IMIPENEM ANHYDROUS], the MIC was above 64 µg/mL in assay [1]; above 40 µg/mL in assay [2]; above 64 µg/mL in assay [3]; 8 µg/mL (≈ 26.7 µM) in [4]; 0.25 µg/mL (≈ 0.835 µM) in assay [7]. In addition, in assay [6], the IC50 was 628 µM.
For `CN[C@H](CC(C)C)C(=O)N[C@H]1C(=O)N[C@@H](CC(N)=O)C(=O)N[C@H]2C(=O)N[C@H]3C(=O)N[C@H](C(=O)N[C@H](C(=O)O)c4cc(O)cc(O)c4-c4cc3ccc4O)[C@H](O)c3ccc(c(Cl)c3)Oc3cc2cc(c3O[C@@H]2O[C@H](CO)[C@@H](O)[C@H](O)[C@H]2O[C@H]2C[C@](C)(N)[C@H](O)[C@H](C)O2)Oc2ccc(cc2Cl)[C@H]1O` [VANCOMYCIN], the MIC was 1.7 µg/mL (≈ 1.17 µM) in assay [1]; 0.9 µg/mL (≈ 0.621 µM) in [2]; 20.2 µg/mL (≈ 13.9 µM) in assay [3]; above 64 µg/mL in assay [4]; 0.35 µg/mL (≈ 0.242 µM) in assay [7].
